“And” between values parts separate entries of the source, which are not always exact repeats. Identical values can stand only once.
Experiment: Peroxy radical scavenging activity (BODIPY 581/591 C11 fluorescence, AMVN radical generator, microplate); synergy by CalcuSyn median-effect method
Format: biochemical
Details: test material alone, 50 percent inhibition of peroxy radical formation, parenthetic values 95% confidence intervals
Protocol: As a peroxy radical generator, 2,2′-azobis-2,4-dimethyl valeronitrile (AMVN) was used and obtained from WAKO Chemicals (Richmond, Va.). All standards were of the highest purity commercially available. Additionally, the solvents were of HPLC grade.
Fluorescence measurements were performed using a Packard FluoroCount microplate fluorometer equipped with a temperature-controlled plate holder. All measurements were preformed in a 96-well polypropylene plate with stirring.
Reactions in octane:butyronitrile (9:1, v/v) were carried out at 30° C. All fluorescence measurements were recorded every 15 minutes for 1 hour at excitation wavelengths of 570 nm, with emission at 620 nm. The net protection (area under the curve, AUC) provided by an antioxidant sample was calculated using the trapezoid method. […] The percent inhibition of each dose was calculated as:
[AUC(dose)−AUC(AMVN)]/[AUC(BODIPY)−AUC(AMVN)]×100.
Stock solutions of the test samples were made up in chloroform and 6 μL were added to the reaction mixture to achieve the stated concentrations. The reaction was initiated by the addition of the AMVN and fluorometric readings were recorded every 15 minutes for one hour.
Synergy between astaxanthin and the sample of mixed tocotrienols was assessed using CalcuSyn (BIOSOFT, biosoft.com).
Cm is determined from the x-intercept of the median-effect plot. The fraction affected by the concentration of the test material is fa and the fraction unaffected by the concentration is fu (fu=1−fa). The exponent m is the parameter signifying the sigmoidicity or shape of the dose-effect curve. It is estimated by the slope of the median-effect plot.
The median-effect plot is a plot of x=log(C) vs y=log(fa/fu) and is based on the logarithmic form of Chou's median-effect equation. The goodness of fit for the data to the median-effect equation is represented by the linear correlation coefficient r of the median-effect plot. Usually, the experimental data from enzyme or receptor systems have an r>0.96, from tissue culture an r>0.90 and from animal systems an r>0.85.
Synergy of test components is quantified using the combination index (CI) parameter. […] The equation determines only the additive effect rather than synergism or antagonism.
Dose-response curves were described with each test article separately and then in a two-way combination.

SMILES | IC50 | IC50 (listed as astaxanthin)
CC1=C(/C=C/C(C)=C/C=C/C(C)=C/C=C/C=C(C)/C=C/C=C(C)/C=C/C2=C(C)C(=O)[C@@H](O)CC2(C)C)C(C)(C)C[C@H](O)C1=O [Astaxanthin, 3,3′-dihydroxy-β,β-carotene-4,4′-dieto-β-carotene] | 150 (115-194) μg/mL and 182 (145-227) μg/mL | 196 µg/mL and 195 µg/mL
CC1=C[C@H](O)CC(C)(C)[C@H]1/C=C/C(C)=C/C=C/C(C)=C/C=C/C=C(C)/C=C/C=C(C)/C=C/C1=C(C)C[C@@H](O)CC1(C)C [Lutein, lutein] | 38 (29-50) μg/mL | –
CC1=C(/C=C/C(C)=C/C=C/C(C)=C/C=C/C=C(C)/C=C/C=C(C)/C=C/C2=C(C)CCCC2(C)C)C(C)(C)CCC1 [β-Carotene, β-carotene] | 196 (171-226) μg/mL and 135 (85-215) μg/mL | –

— patent publication US20030206972A1, “Compositions containing carotenoids and tocotrienols and having synergistic antioxidant effect” (priority 2000, published 2003)
